Results from patent US20230233690A1, “ANDROGEN RECEPTOR PROTEIN DEGRADERS” (THE REGENTS OF THE UNIVERSITY OF MICHIGAN, priority 2020, published 2023).
Where two headings read alike, the source gives them in different places.

Tests used:
[1] = PK parameters in male ICR mice; type: in vivo
Description: (§1) The pharmacokinetics (PK) of representative Compounds of the Disclosure were evaluated in mice or rats to provide an assessment of their oral bioavaibility. All animal experiments were performed under the guidelines of the University of Michigan Committee for Use and Care of Animals and using an approved animal protocol.

[2] = target: T1, AR protein (Homo sapiens, UniProt P10275); assay: Western blotting of AR protein degradation in VCaP cells; type: cell-based
T1 construct: endogenous in cells; host or cells: VCaP
T1 sequence (P10275 1-920): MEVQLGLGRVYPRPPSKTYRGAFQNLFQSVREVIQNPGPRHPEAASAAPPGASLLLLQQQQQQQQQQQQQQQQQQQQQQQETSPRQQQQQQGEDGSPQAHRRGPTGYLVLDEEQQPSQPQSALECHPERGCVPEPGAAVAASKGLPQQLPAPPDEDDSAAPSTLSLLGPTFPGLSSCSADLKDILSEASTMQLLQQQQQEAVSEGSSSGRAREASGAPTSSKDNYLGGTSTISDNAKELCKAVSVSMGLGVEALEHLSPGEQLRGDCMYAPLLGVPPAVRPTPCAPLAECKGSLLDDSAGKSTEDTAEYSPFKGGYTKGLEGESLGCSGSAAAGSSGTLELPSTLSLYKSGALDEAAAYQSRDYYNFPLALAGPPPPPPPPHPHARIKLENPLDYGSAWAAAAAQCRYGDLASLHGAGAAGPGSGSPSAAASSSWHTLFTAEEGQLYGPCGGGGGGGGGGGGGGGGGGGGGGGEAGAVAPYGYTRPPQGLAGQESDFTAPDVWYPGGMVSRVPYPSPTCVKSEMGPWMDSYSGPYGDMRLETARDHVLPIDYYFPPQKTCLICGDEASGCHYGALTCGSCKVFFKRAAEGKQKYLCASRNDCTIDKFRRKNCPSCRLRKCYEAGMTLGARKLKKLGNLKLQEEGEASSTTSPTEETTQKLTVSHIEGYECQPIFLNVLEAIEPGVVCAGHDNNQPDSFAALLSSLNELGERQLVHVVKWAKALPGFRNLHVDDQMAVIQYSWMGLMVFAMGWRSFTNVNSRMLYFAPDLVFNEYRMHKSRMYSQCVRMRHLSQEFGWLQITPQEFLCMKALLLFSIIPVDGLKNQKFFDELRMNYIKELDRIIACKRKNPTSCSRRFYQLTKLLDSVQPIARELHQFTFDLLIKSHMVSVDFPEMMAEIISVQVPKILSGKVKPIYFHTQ
Description: The treated cells were lysed with RIPA buffer. […] GAPDH was used as a loading control.
Bands were quantified with ImageJ software. The relative numbers of each band obtained from normalization with its corresponding GAPDH level were compared with Prism 8 software. The DC50 values were produced from Prism 8, and the DC90 values were calculated with an equation=Bottom+(Top−Bottom)/(1+10^((Log EC50−X)*HillSlope) based on DC50 and Hillslope values.

[3] = PK parameters in male mice (Table 9); type: in vivo; details: for Vd: read-out: Vss
Description: as §1

[4] = ICR, mouse, in vivo, IV 2 mg/kg
[5] = ICR, mouse, in vivo, IV 1 mg/kg

Compound	% AR protein degradation in VCaP Cells ([2]; 0.001 μM) [%]	% AR protein degradation in VCaP Cells ([2]; 0.01 μM) [%]	% AR protein degradation in VCaP Cells ([2]; 0.1 μM) [%]	% AR protein degradation in VCaP Cells ([2]; 1 μM) [%]	AUC(0-t) ([3]; IV 1 mg/kg) [ng·h/mL]	Cl ([3]; IV 1 mg/kg) [mL/min/kg]	T1/2 ([3]; IV 1 mg/kg) [h]	AUC(0-t) ([3]; PO 3 mg/kg) [ng·h/mL]	Cmax ([3]; PO 3 mg/kg) [ng/mL]	T1/2 ([3]; PO 3 mg/kg) [h]	Tmax ([3]; PO 3 mg/kg) [h]	F ([3]; PO 3 mg/kg vs IV 1 mg/kg) [%]	Vd [3, 5] [L/kg]	other results
CC1(C)[C@H](NC(=O)c2ccc(N3CCN(CC4CCN(c5ccc6c(c5)C(=O)N(C5CCC(=O)NC5=O)C6=O)CC4)CC3)cc2)C(C)(C)[C@H]1Oc1ccc(C#N)c(Cl)c1 (some centres unmarked) [Cpd. No. 46, N-((1r,3r)-3-(3-chloro-4-cyanophenoxy)-2,2,4,4-tetramethylcyclobutyl)-4-(4-((1-(2-(2,6-dioxopiperidin-3-yl)-1,3-dioxoisoindolin-5-yl)piperidin-4-yl)methyl)piperazin-1-yl)benzamide]														AUC(0-t) ([1]; IV 2 mg/kg): 13298.5 ng·h/mL; Cl-obs ([1]; IV 2 mg/kg): 1.2 mL/min/kg; Vss ([1]; IV 2 mg/kg): 2.7 L/kg; AUC(0-t) ([1]; PO 5 mg/kg): 22360.5 ng·h/mL; Cmax ([1]; PO 5 mg/kg): 1304.3 ng/mL; F ([1]; PO 5 mg/kg): 67.3%; T1/2 ([1]; PO 5 mg/kg): 18.8 h
CN(c1ccc(C#N)c(Cl)c1)[C@H]1CC[C@H](NC(=O)c2ccc(N3CC(CN4CCN(c5ccc6c(c5)C(=O)N(C5CCC(=O)NC5=O)C6=O)CC4)C3)cc2)CC1 (some centres unmarked) [compound 239, N-((1r,4r)-4-((3-chloro-4-cyanophenyl)(methyl)amino)cyclohexyl)-4-(3-((4-(2-(2,6-dioxopiperidin-3-yl)-1,3-dioxoisoindolin-5-yl)piperazin-1-yl)methyl)azetidin-1-yl)benzamide]	73	91	95	94	1118	13.2	8.8	1134	92.2	8.1	4.0	34		Vss ([3]; IV 1 mg/kg): 8.25 L/kg
N#Cc1ccc(O[C@H]2CC[C@H](NC(=O)c3ccc(N4CCN(C5CN(c6ccc7c(c6)C(=O)N(C6CCC(=O)NC6=O)C7=O)C5)CC4)cc3)CC2)cc1Cl (some centres unmarked) [compound 225, N-((1r,4r)-4-(3-chloro-4-cyanophenoxy)cyclohexyl)-4-(4-(1-(2-(2,6-dioxopiperidin-3-yl)-1,3-dioxoisoindolin-5-yl)azetidin-3-yl)piperazin-1-yl)benzamide]	61	48	15	−23										clearance [3, 4]: 4.33 mL/min/kg; half-life [3, 4]: 6.58 h; AUC(0-t) ([3]; ICR, mouse, in vivo, IV 2 mg/kg, read-out: AUC(0-t)): 6760 ng·h/mL; Vd [3, 4]: 2.23 L/kg; half-life ([3]; ICR, mouse, in vivo, PO 5 mg/kg): 5.8 h; AUC(0-t) ([3]; ICR, mouse, in vivo, PO 5 mg/kg, read-out: AUC(0-t)): 13100 ng·h/mL; Cmax ([3]; ICR, mouse, in vivo, PO 5 mg/kg, read-out: Cmax): 2130 ng/mL; Tmax ([3]; ICR, mouse, in vivo, PO 5 mg/kg, read-out: Tmax): 2 h; F ([3]; PO 5 mg/kg vs IV 2 mg/kg): 77%
CN(c1ccc(C#N)c(Cl)c1)[C@H]1CC[C@H](NC(=O)c2ccc(N3CCN(C4CCN(c5ccc6c(c5)C(=O)N(C5CCC(=O)NC5=O)C6=O)CC4)CC3)cc2)CC1 (some centres unmarked) [Cpd. No. 235, N-((1r,4r)-4-((3-chloro-4-cyanophenyl)(methyl)amino)cyclohexyl)-4-(4-(1-(2-(2,6-dioxopiperidin-3-yl)-1,3-dioxoisoindolin-5-yl)piperidin-4-yl)piperazin-1-yl)benzamide]	94	99	99.9		3366	4.5	7.6	3001	256.1	7.0	4.7	29	2.64	
CC1(C)[C@H](NC(=O)c2ccc(N3CCC(CN4CCN(c5ccc6c(c5)C(=O)N(C5CCC(=O)NC5=O)C6=O)CC4)CC3)cc2)C(C)(C)[C@H]1Oc1ccc(C#N)c(Cl)c1 (some centres unmarked) [compound 190, N-((1r,3r)-3-(3-chloro-4-cyanophenoxy)-2,2,4,4-tetramethylcyclobutyl)-4-(4-((4-(2-(2,6-dioxopiperidin-3-yl)-1,3-dioxoisoindolin-5-yl)piperazin-1-yl)methyl)piperidin-1-yl)benzamide]														AUC(0-t) ([1]; IV 1 mg/kg): 2565 ng·h/mL; Cl-obs ([1]; IV 1 mg/kg): 3.2 mL/min/kg; Vss ([1]; IV 1 mg/kg): 6.8 L/kg; AUC(0-t) ([1]; PO 3 mg/kg): 2550.1 ng·h/mL; Cmax ([1]; PO 3 mg/kg): 134.4 ng/mL; F ([1]; PO 3 mg/kg): 33.1%; T1/2 ([1]; PO 3 mg/kg): 67.8 h
N#Cc1ccc(O[C@H]2CC[C@H](NC(=O)c3ccc(N4CCC(N5CCN(c6ccc7c(c6)C(=O)N(C6CCC(=O)NC6=O)C7=O)CC5)CC4)cc3)CC2)cc1Cl (some centres unmarked) [compound 223, N-((1r,4r)-4-(3-chloro-4-cyanophenoxy)cyclohexyl)-4-(4-(4-(2-(2,6-dioxopiperidin-3-yl)-1,3-dioxoisoindolin-5-yl)piperazin-1-yl)piperidin-1-yl)benzamide]	73	91	85	75	2425		6.1	2154	207	5.6	4.0	30	3.04	clearance [3, 5]: 6.5 mL/min/kg
CN(c1ccc(C#N)c(Cl)c1)[C@H]1CC[C@H](NC(=O)c2ccc(N3CCN(C4CN(c5ccc6c(c5)C(=O)N(C5CCC(=O)NC5=O)C6=O)C4)CC3)cc2)CC1 (some centres unmarked) [Cpd. No. 238, N-((1r,4r)-4-((3-chloro-4-cyanophenyl)(methyl)amino)cyclohexyl)-4-(4-(1-(2-(2,6-dioxopiperidin-3-yl)-1,3-dioxoisoindolin-5-yl)azetidin-3-yl)piperazin-1-yl)benzamide]	78	90	89	78										AUC(0-t) ([3]; IV 2 mg/kg): 6481 ng·h/mL; Cl ([3]; IV 2 mg/kg): 5 mL/min/kg; T1/2 ([3]; IV 2 mg/kg): 5.5 h; Vss ([3]; IV 2 mg/kg): 1.8 L/kg; AUC(0-t) ([3]; PO 5 mg/kg): 8254 ng·h/mL; Cmax ([3]; PO 5 mg/kg): 1140 ng/mL; T1/2 ([3]; PO 5 mg/kg): 4.6 h; Tmax ([3]; PO 5 mg/kg): 2.0 h; F ([3]; PO 5 mg/kg vs IV 2 mg/kg): 51%
CN(c1ccc(C#N)c(Cl)c1)[C@H]1CC[C@H](NC(=O)c2ccc(N3CCC(CN4CCN(c5ccc6c(c5)C(=O)N(C5CCC(=O)NC5=O)C6=O)CC4)CC3)cc2)CC1 (some centres unmarked) [compound 234, N-((1r,4r)-4-((3-chloro-4-cyanophenyl)(methyl)amino)cyclohexyl)-4-(4-((4-(2-(2,6-dioxopiperidin-3-yl)-1,3-dioxoisoindolin-5-yl)piperazin-1-yl)methyl)piperidin-1-yl)benzamide]	55	91	93	90	693	18.3	12.5	737.5	45.0	27.0	6.0	35		Vss ([3]; IV 1 mg/kg): 17.6 L/kg
N#Cc1ccc(O[C@H]2CC[C@H](NC(=O)c3ccc(N4CCN(C5CCN(c6ccc7c(c6)C(=O)N(C6CCC(=O)NC6=O)C7=O)CC5)CC4)cc3)CC2)cc1Cl (some centres unmarked) [compound 222, N-((1r,4r)-4-(3-chloro-4-cyanophenoxy)cyclohexyl)-4-(4-(1-(2-(2,6-dioxopiperidin-3-yl)-1,3-dioxoisoindolin-5-yl)piperidin-4-yl)piperazin-1-yl)benzamide]	63	59	60	43								33	4.75	clearance [3, 5]: 7.33 mL/min/kg; half-life [3, 5]: 9 h; AUC(0-t) ([3]; ICR, mouse, in vivo, IV 1 mg/kg, read-out: AUC(0-t)): 1980 ng·h/mL; half-life ([3]; ICR, mouse, in vivo, PO 3 mg/kg): 11.3 h; AUC(0-t) ([3]; ICR, mouse, in vivo, PO 3 mg/kg, read-out: AUC(0-t)): 1990 ng·h/mL; Cmax ([3]; ICR, mouse, in vivo, PO 3 mg/kg, read-out: Cmax): 122 ng/mL; Tmax ([3]; ICR, mouse, in vivo, PO 3 mg/kg, read-out: Tmax): 6 h
